One data set deals with Male CD1 mice. As to the kind of experiment: Anticonvulsant activity against pentylenetetrazole (PTZ) induced seizures. The class given is in vivo. The conditions noted are these: for % Clonic: incidence of clonic seizures; for % Tonic: incidence of tonic seizures. As for the experimental part:
The amount of test compound needed to prevent convulsions induced by a fixed amount of pentylenetetrazol can then be determined.
(A) Male CD1 mice (Charles River) are randomly divided into groups of at least 20, and treated with 500 µg/Kg of (S,RS)-2,6-dimethyl-3-carbomethoxy-4-(3-nitrophenyl)-5-(3-[4-(2-tetrahydropyran-2-yloxyethyl)-phenoxy]propoxycarbonyl)-1,4-dihydropyridine (the compound is dissolved in 0.1 mL of ethanol and diluted with 99.9 mL saline and injected intraperitoneally) before subcutaneous administration of 100 mg/Kg pentylenetetrazole ("PTZ", a known convulsant) under the following dosing schedules: (A) 15 minutes prior to PTZ administration; (B) 60 minutes prior to PTZ administration; and (C) b.i.d. for three days prior to PTZ administration, a further dose being given on a fourth day 15 minutes prior to PTZ administration. After PTZ administration, the mice are observed for at least 30 minutes, and the incidence of clonic seizures, tonic seizures, and death is noted. The experiment is terminated by pentobarbitone overdose.

The subject of data set [1] is CA₁ pyramidal cells in the hippocampus. Nature of the data set: Neuroprotection from ischemic damage: delayed neuronal death after bilateral carotid occlusion. The class given is in vivo, Mongolian gerbils. The conditions noted are these: then B.I.D. three days post-ischemia. As for the experimental part: This experimental test is described in the literature by Kirino, T. Brain Research, 239, 57-69 (1982). A detailed description is set forth in Example 3.
Mongolian gerbils of either sex (50-80 g) are treated with a test compound (or control) either intraperitoneally (IP) at 500 mg/kg 15 minutes prior to induction of ischemia followed by B.I.D. dosing for three days post-ischemia, or orally at 5 mg/kg twice daily for 3 out of 4 days and then 15 minutes prior to cerebral ischemia on the 4th day followed by B.I.D. dosing for three days post-ischemia. To facilitate induction of forebrain ischemia the animals are then anesthetized with halothane (5% in 30:70 oxygen:nitrous oxide) delivered by face mask. Following rapid induction, the halothane is decreased to 1.5-2% and maintained at that level for the remainder of the experiment. The left and right common carotid arteries are exposed in the paratracheal region through a ventral midline cervical skin incision and freed from the accompanying vagosympathetic nerve trunks. A loose ligature is placed around the arteries to facilitate identification at the time of occlusion.
The carotid arteries are then bilaterally occluded for 5 minutes using microvascular clips (Ackland C-2-V, Weiss, London). Blood flow is then restored, the wound dusted with antibiotic powder (Cicatrin, Calmic Medical Division, The Wellcome Foundation Ltd., London), and sutured. The subjects are then caged individually and allowed food and water ad libitum. […]
The extent of neuronal death is determined by counting microscopically (at 40x power) all normal and abnormal cells in five fields per hemisphere of the hippocampal CA₁ subfield from the paramedian area to its junction with CA₂ neurons. The field counts are then summed and the mean percentage of dead cells calculated (n=10 fields per brain). Statistical significance was calculated using the Student's t test for unpaired samples, with significance taken at p less than 0.05.

For another data set, the system named is dogs. Nature of the data set: Toxicology: three-month oral dosing. The class given is in vivo.
Where [2] appears, read: schedule A: 500 µg/Kg intraperitoneally 15 minutes prior to PTZ 100 mg/Kg s.c.
The mark [3] stands for this setting: schedule B: 500 µg/Kg intraperitoneally 60 minutes prior to PTZ 100 mg/Kg s.c.
The mark [4] stands for this setting: schedule C: 500 µg/Kg intraperitoneally b.i.d. for three days, further dose on fourth day 15 minutes prior to PTZ 100 mg/Kg s.c.

Here are results for one compound from patent EP0320006A2, “Uses of 1,4-dihydropyridines” (LABORATOIRES SYNTEX, priority 1987, dated 1989).

Marks after values point to notes of the source that are not given here.

Take `COC(=O)C1=C(C)NC(C)=C(C(=O)OCCCOc2ccc(CCOC3CCCCO3)cc2)[C@H]1c1cccc([N+](=O)[O-])c1` (mixture of isomers) [X, (S,RS)-2,6-dimethyl-3-carbomethoxy-4-(3-nitrophenyl)-5-[3-(4-[2-(tetrahydropyran-2-yloxy)ethyl]phenoxy)propoxycarbonyl]-1,4-dihydropyridine]: the anticonvulsant activity result in the data set on Male CD1 mice (PTZ test in mice, statement in words) is recorded as “demonstrates anticonvulsant activity”. Moreover, the results for the “% Death” value in the data set with Male CD1 mice (setting [2]), with Male CD1 mice (setting [3]) and in the data set on Male CD1 mice (setting [4]) were 38.1* %, 35* % and 60%, respectively. Moreover, the “% Clonic” value is 90.5% with Male CD1 mice (setting [2]), 80% in the data set with Male CD1 mice (setting [3]) and 65** % in the data set with Male CD1 mice (setting [4]). For the same compound, the “% Tonic” value in the data set on Male CD1 mice (setting [2]) is 90.5%; in the data set with Male CD1 mice (setting [3]) it was 40*** %; in the data set with Male CD1 mice (setting [4]), 55%. Moreover, the “Percentage abnormal neurone count” value stood at 6.6 ± 0.8% in data set [1] (intraperitoneal administration, PEG 300 + water, 500 mg/kg 15 minutes prior to ischemia, 5 minutes occlusion, counted at 72 hours); 5.6 ± 0.3% in data set [1] (intraperitoneal administration, alcoholic vehicle, 500 mg/kg 15 minutes prior to ischemia, 5 minutes occlusion, counted at 72 hours); 58.0 ± 5.0% in data set [1] (oral, PEG 300 + vehicle, 5 mg/kg twice daily 3 out of 4 days, 15 minutes prior to ischemia on 4th day). Moreover, in the data set on dogs (oral dosing of dogs for three months at 1.5 and 10 mg/kg/day), the pathological change result is on record as “did not produce any pathological change”. In addition, the urine analysis result in the data set on dogs (oral dosing of dogs for three months, all doses) is recorded as “normal”. For the same compound, the Ophthalmoscopy result with dogs (oral dosing of dogs for three months, all doses, throughout the study) was “remained normal”.
